Columns and labels:
[1] = biological target: T1, Human recombinant Vanin-1 (VNN1) (Homo sapiens, UniProt O95497); test: Vanin-1 enzymatic assay (fluorescence intensity, Pantothenate-AMC substrate); type: biochemical; details: purified recombinant human Vanin-1 0.5 nM; 30 min preincubation at 30° C.; Pantothenate-AMC 30 μM, 60 min
T1 construct: purchased Sino Biological Inc. 11662-H08H
T1 sequence (O95497 22-491): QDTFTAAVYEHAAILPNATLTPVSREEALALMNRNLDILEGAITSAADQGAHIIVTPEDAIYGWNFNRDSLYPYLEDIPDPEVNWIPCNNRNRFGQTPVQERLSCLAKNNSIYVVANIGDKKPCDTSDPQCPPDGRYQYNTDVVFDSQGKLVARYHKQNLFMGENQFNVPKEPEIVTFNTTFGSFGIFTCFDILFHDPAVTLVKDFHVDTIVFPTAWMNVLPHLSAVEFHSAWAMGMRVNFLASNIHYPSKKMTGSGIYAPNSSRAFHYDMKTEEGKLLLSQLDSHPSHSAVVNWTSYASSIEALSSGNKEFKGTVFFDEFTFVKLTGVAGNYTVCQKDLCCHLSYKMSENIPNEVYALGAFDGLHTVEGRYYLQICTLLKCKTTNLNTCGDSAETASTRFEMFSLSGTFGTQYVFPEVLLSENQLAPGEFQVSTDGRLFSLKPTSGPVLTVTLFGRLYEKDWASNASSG
Method: Human recombinant Vanin-1 (VNN1) was purchased from Sino Biological Inc. (Catalog Number: 11662-H08H).
Measurement of VNN1 inhibition is performed in 384-well format based on fluorescence intensity assay. Purified recombinant human Vanin-1 (0.5 nM) and threefold serial diluted compounds in 3% DMSO (range of concentrations from 30 μM to 1.524 nM) or controls (3.0% DMSO) are incubated for 30 minutes at 30° C. with gentle agitation in assay buffer containing 100 mM potassium Phosphate Buffer (KPi), pH 7.5, 0.001% Bovine Serum Albumin (BSA), 0.5 mM dithiothreitol (DTT) and 0.0025% Brij-35. The reaction is initiated by the addition of the fluorogenic substrate, Pantothenate-AMC, at a concentration of 30 μM. After 60 minutes of incubation at 30° C. with gentle agitation, fluorescence intensity is measured at λex=350 nm and λem=450 nm with a fluorescence reader (BMG PHERAstar reader or equivalent).

[2] = biological target: T2, Vanin-1 in SUIT-S2 cell line (Homo sapiens, UniProt O95497); test: Vanin-1 cell-based mechanistic assay (fluorescence intensity, Pantothenate-AMC substrate); details: 40000 cells per well, 2 hours incubation at 37° C., Pantothenate-AMC 30 μM, 30 min
T2 construct: endogenous in cells; host or cells: SUIT-S2 cell line (ATCC # CRL1596)
T2 sequence (O95497 22-491): T1 sequence (O95497 22-491)
Method: Vanin-1 Cell-Based Mechanistic Assay:
The cellular activity of the examples is measured in 96-well format based on fluorescence intensity assay using SUIT-S2 cell line (ATCC # CRL1596).
Cells are cultured at 37° C. with 5% CO2 to 80-90% confluence and then washed once with phosphate-buffered saline (PBS). Adherent cells are detached with PBS-EDTA and once in suspension 40000 cells are dispensed in 90 μl of PBS in 96-well black plates with clear bottoms. Threefold serial dilutions of test compounds are made in DMSO and then solubilized in PBS, dilution range 1:30. Cells and serial diluted test compounds (final concentrations 10 μM to 4.6 nM) or controls (PBS/0.3% DMSO) are incubated for 2 hours at 37° C. with 5% CO2. The reaction is initiated by the addition of the fluorogenic substrate, Pantothenate-AMC, at a concentration of 30 μM. After 30 minutes of incubation at 30° C. with gentle agitation, fluorescence intensity is measured at λex=350 nm and λem=450 nm with a fluorescence reader (BMG PHERAstar reader or equivalent).

| Compound | IC50 [1] [nM] | IC50 [2] [nM] |
| --- | --- | --- |
| C=CC(=O)CCNC(=O)[C@H](O)C(C)(C)CO [Example 3, (R)-2,4-Dihydroxy-3,3-dimethyl-N-(3-oxo-pent-4-enyl)-butyramide] | 9250 | 1270 |
| CC(C)(CO)[C@@H](O)C(=O)NCCC(=O)/C=C/Cc1ccccc1 [Example 4, (R)-2,4-Dihydroxy-3,3-dimethyl-N-((E)-3-oxo-6-phenyl-hex-4-enyl)-butyramide] | 2010 | 1190 |
| CC(=O)/C=C/CCNC(=O)[C@H](O)C(C)(C)CO [Example 5, (R)-2,4-Dihydroxy-3,3-dimethyl-N-((E)-5-oxo-hex-3-enyl)-butyramide] | 3310 | 3200 |
| CC(C)(CO)[C@@H](O)C(=O)NCC/C=C/C(=O)CCc1ccccc1 [Example 6] | 5790 | 670 |
| CC(C)(CO)[C@@H](O)C(=O)NCCC(=O)C(=O)NCCc1cccs1 [Example 14, (R)-2,4-Dihydroxy-3,3-dimethyl-N-[3-oxo-3-(2-thiophen-2-yl-ethylcarbamoyl)-propyl]-butyramide] | 50 | 90 |
| CC(C)(CO)[C@@H](O)C(=O)NCCC(=O)C(=O)NCc1ccccc1C(F)(F)F [Example 23, (R)-2,4-Dihydroxy-3,3-dimethyl-N-[3-oxo-3-(2-trifluoromethyl-benzylcarbamoyl)-propyl]-butyramide] | 70 | 50 |
| COC(=O)c1ccc(-c2ccc(CNC(=O)C(=O)CCNC(=O)[C@H](O)C(C)(C)CO)cc2)cc1 [Example 56, 4′-{[4-((R)-2,4-Dihydroxy-3,3-dimethyl-butyrylamino)-2-oxo-butyrylamino]-methyl}-biphenyl-4-carboxylic acid methyl ester] | 10 | – |
| CC(C)(CO)[C@@H](O)C(=O)NCCN(CCOc1ccccc1)C(=O)CCl [Example 63, (R)—N-{2-[(2-Chloro-acetyl)-(2-phenoxy-ethyl)-amino]-ethyl}-2,4-dihydroxy-3,3-dimethyl-butyramide] | 3550 | – |
| CC(C)(CO)[C@@H](O)C(=O)NCCN(CCOc1ccc(S(C)(=O)=O)cc1)C(=O)CCl [Example 64, (R)—N-(2-{(2-Chloro-acetyl)-[2-(4-methanesulfonyl-phenoxy)-ethyl]-amino}-ethyl)-2,4-dihydroxy-3,3-dimethyl-butyramide] | 3440 | – |
| COC(=O)c1ccc(OCCN(CCNC(=O)[C@H](O)C(C)(C)CO)C(=O)CCl)cc1 [Example 65, 4-(2-{(2-Chloro-acetyl)-[2-((R)-2,4-dihydroxy-3,3-dimethyl-butyrylamino)-ethyl]-amino}-ethoxy)-benzoic acid methyl ester] | 3990 | – |
| CC(C)(CO)[C@@H](O)C(=O)NCCN(CCOc1ccc(Br)cc1)C(=O)CCl [Example 66] | 2870 | – |

The next lines start with the values.

| IC50 [1] [nM] | IC50 [2] [nM] | Compound |
| --- | --- | --- |
| 830 | 1490 | CC(C)(CO)[C@@H](O)C(=O)NCCC(=O)C(N)=O [Example 7, (R)—N-(3-Carbamoyl-3-oxo-propyl)-2,4-dihydroxy-3,3-dimethyl-butyramide] |
| 1680 | 3540 | CC(C)(CO)[C@@H](O)C(=O)NCCC(=O)C(=O)NC1CC1 [Example 8, (R)—N-(3-Cyclopropylcarbamoyl-3-oxo-propyl)-2,4-dihydroxy-3,3-dimethyl-butyramide] |
| 40 | 30 | CC(C)(CO)[C@@H](O)C(=O)NCCC(=O)C(=O)NCc1ccccc1 [Example 9, (R)—N-(3-Benzylcarbamoyl-3-oxo-propyl)-2,4-dihydroxy-3,3-dimethyl-butyramide] |
| 30 | 25 | CC(C)(CO)[C@@H](O)C(=O)NCCC(=O)C(=O)NCc1ccccc1F [Example 10, (R)—N-[3-(2-Fluoro-benzylcarbamoyl)-3-oxo-propyl]-2,4-dihydroxy-3,3-dimethyl-butyramide] |
| 30 | 73 | CC(C)(CO)[C@@H](O)C(=O)NCCC(=O)C(=O)NCC1CCCCC1 [Example 11, (R)—N-[3-(Cyclohexylmethyl-carbamoyl)-3-oxo-propyl]-2,4-dihydroxy-3,3-dimethyl-butyramide] |
| 50 | 140 | CC(C)(CO)[C@@H](O)C(=O)NCCC(=O)C(=O)NCc1cccc(OC(F)(F)F)c1 [Example 15, (R)-2,4-Dihydroxy-3,3-dimethyl-N-[3-oxo-3-(3-trifluoromethoxy-benzylcarbamoyl)-propyl]-butyramide] |
| 30 | 20 | CC(C)(CO)[C@@H](O)C(=O)NCCC(=O)C(=O)NCc1ccc(F)cc1 [Example 17, (R)—N-[3-(4-Fluoro-benzylcarbamoyl)-3-oxo-propyl]-2,4-dihydroxy-3,3-dimethyl-butyramide] |
| 30 | 50 | CC(C)(CO)[C@@H](O)C(=O)NCCC(=O)C(=O)NCc1cccc2ccccc12 [Example 19, (R)-2,4-Dihydroxy-3,3-dimethyl-N-{3-[(naphthalen-1-ylmethyl)-carbamoyl]-3-oxo-propyl}-butyramide] |
| 60 | 30 | COc1cccc(CNC(=O)C(=O)CCNC(=O)[C@H](O)C(C)(C)CO)c1 [Example 22, (R)-2,4-Dihydroxy-N-[3-(3-methoxy-benzylcarbamoyl)-3-oxo-propyl]-3,3-dimethyl-butyramide] |
| 10 | < 10 | CC(C)(CO)[C@@H](O)C(=O)NCCC(=O)C(=O)NCc1ccc(S(C)(=O)=O)cc1 [Example 24, (R)-2,4-Dihydroxy-N-[3-(4-methanesulfonyl-benzylcarbamoyl)-3-oxo-propyl]-3,3-dimethyl-butyramide] |
| 380 | 260 | CC(C)(CO)[C@@H](O)C(=O)NCCC(=O)C(=O)NCc1cccc(OCCNS(C)(=O)=O)c1 [Example 26, (R)-2,4-Dihydroxy-N-{3-[3-(2-methanesulfonylamino-ethoxy)-benzylcarbamoyl]-3-oxo-propyl}-3,3-dimethyl-butyramide] |
| 20 | 100 | CC(C)(CO)[C@@H](O)C(=O)NCCC(=O)C(=O)NCc1ccc(-c2ccccc2)cc1 [Example 28, (R)—N-{3-[(Biphenyl-4-ylmethyl)-carbamoyl]-3-oxo-propyl}-2,4-dihydroxy-3,3-dimethyl-butyramide] |
| < 10 | 10 | CC(C)(CO)[C@@H](O)C(=O)NCCC(=O)C(=O)NCc1ccc(Br)cc1 [Example 31, (R)—N-[3-(4-Bromo-benzylcarbamoyl)-3-oxo-propyl]-2,4-dihydroxy-3,3-dimethyl-butyramide] |
| < 10 | < 10 | CC(C)(CO)[C@@H](O)C(=O)NCCC(=O)C(=O)NCc1ccc(C(=O)NCCc2ccc(Oc3ccccc3)cc2)cc1 [Example 32, 4-{[4-((R)-2,4-Dihydroxy-3,3-dimethyl-butrylamino)-2-oxo-butyrylamino]-methyl)-N-[2-(4-phenoxy-phenyl)-ethyl]-benzamide] |
| < 10 | < 10 | CC(C)(CO)[C@@H](O)C(=O)NCCC(=O)C(=O)NCc1ccc(S(=O)(=O)N2CCCCC2)cc1 [Example 33, (R)-2,4-Dihydroxy-3,3-dimethyl-N-{3-oxo-3-[4-(piperidine-1-sulfonyl)-benzylcarbamoyl]-propyl}-butyramide] |
| < 10 | – | CC(C)(CO)[C@@H](O)C(=O)NCCC(=O)C(=O)NCc1ccc(-c2ccc(C(=O)O)cc2)cc1 [Example 55, 4′-{[4-((R)-2,4-Dihydroxy-3,3-dimethyl-butyrylamino)-2-oxo-butyrylamino]-methyl}-biphenyl-4-carboxylic acid] |

From US9585891B2 (MERCK PATENT GMBH, priority 2012, dated 2017)
